# Experimental data taken from patent publication US20210068400A1, “COMPOSITIONS CONTAINING COMBINATIONS OF NITROGEN-FIXING BACTERIA AND ADDITIONAL AGENTS AND THEIR USE IN FIXING NITROGEN IN PLANT SPECIES” (GRACE BREEDING NITROGEN FIXATION TECHNOLOGIES LTD., priority 2018, published 2021).
# Values joined by “and” are separate entries in the source; they are usually repeats but may differ in a detail not shown here. Equal values may be shown once.
# How the values were obtained:
# [1] = test system: wheat (Galil variety); test: Wheat field trial 5 (Example 5); type: in vivo
# Description: Two different agricultural sites in Israel were selected for field trials in which the effects of compositions of the present invention on wheat crops were investigated. The various compositions were administered to the growing wheat (Galil variety) as described in Examples 3 and 4, hereinabove. The treatments used in this study are as follows:
# B. Negative control (no nitrogen source)
# A. Granules prepared according to Example 3, applied at a density of 4 kg granules per 1000 m^2.
# C. Granules prepared according to Example 3, applied at a density of 2 kg granules per 1000 m^2.
# F. Positive control—full commercial nitrogen. The plants were treated with 30 units of nitrogen per 1000 m^2 by means of applying to this area 60kg urea containing 46% urea.
# The following parameters were measured in the wheat, in order to assess the effect of the treatment compositions on plant growth: […]
# [2] = test system: maize plants; test: Maize field trial 3, growth parameters (Example 3); type: in vivo, maize (Zea mays); settings: 3 months after sowing
# Description: In some of the treatments (as explained hereinbelow), some or all of the active substances were added in the form of granules to the furrow in which the plants had been seeded. The granules were prepared by soaking 1 kg of Perlite granules (having a mean diameter greater than 2 mm) in the following solution: • 50 ml of the concentrated activating agent emulsion (as described above). • 930 ml water. • 10 ml Rhizobium leguminosarum biovar viceae (Cell-Tech™ granular; Monsanto Company) (Granule-R). or Bacillus subtilis (Granule-B) • 10 ml Calirus. • 1000 ml total
# This trial was sown during the Israeli growing season of 2018 using the pioneer maize silage variety number W86. The field was washed from possible nitrogen using sprinklers irrigation. The combination treatments administered to the plants which are of relevance for the present study were: • A. Positive Control—full commercial nitrogen. The plants were treated with 30 units of nitrogen per 1000 m^2 by means of applying to this area 60 kg urea containing 46% urea. • B. Negative Control—no added nitrogen. • C. Rhizobium leguminosarum biovar viceae, 3% (containing 10^9 organisms) was added to the activating agent emulsion described in ‘general methods’ hereinabove, to which Calirus (1%) was also added. Perlite granules were soaked with this mixture as described hereinabove. The granules were added to the sowing trench at a density of 2 Kg granules per 1000m^2. • D. As for treatment C, but with the granule quantity adjusted to 1 Kg granules per 1000 m^2. • E. As for treatment C, but with the granule quantity adjusted to 4 Kg granules per 1000 m^2.
# The following parameters were monitored at one timepoint during growth of the maize plants, 3 months after they were sown: • Plant stem caliber • Leaf width • Cob weight (taken from the main stems of 10 plants) • Total plant weight (10 plants) • Plant height
# The statistical significance of the difference between the various treatment groups was determined using the Tukey-Kramer HSD test.
# [3] = test system: maize plants; test: Maize field trial 4, total leaf nitrogen content (Example 4); type: in vivo, maize (Zea mays); settings: maize leaves, 3 months after sowing
# Description: Generally, the nitrogen content of the growing plant in the field study was measured using a spectrophotometric method based on the standard method “4500-NO3_I. Cadmium Reduction Flow Injection Method” published by the Standard Methods Organization (<https://www.standardmethods.org/doi/full/10.2105/SMWW.2882.089). This method is based on the conversion of nitrates in an aqueous plant material extract to nitrites by passing the extract through a copperized cadmium column. Subsequent processing steps convert the nitrites to a magenta-colored dye having an absorbance peak at 540 nm.
# This trial was sown during the Israeli growing season of 2018 using the pioneer maize silage variety number W86. The field was washed from possible nitrogen using sprinkler irrigation. The combination treatments administered to the plants which are of relevance for the present study were: • PC. Positive Control—full commercial nitrogen. The plants were treated with 30 units of nitrogen per 1000 m^2 by means of applying to this area 60 kg urea containing 46% urea. • NC. Negative Control—no nitrogen. • 1. […]
# The average total leaf nitrogen content was measured at one timepoint during growth of the maize plants, 3 months after sowing.
# [4] = test system: Tomato seedlings inoculated with bacterial and fungal cocktails; test: Inoculation of tomato seedlings; type: in vivo; settings: 5 days following treatment; concentration 3; FIG. 31
# Description: Tomato seedlings were inoculated with 10 cc of each test mixtures containing Rhizobium species and various combinations of activating phytochemicals. (including the bacterial and fungal cocktails described below) […].
# The health of each plant was assessed 5 days following treatment, using a semi-quantitative inoculation index (0=healthy, 5=dead).
# The composition and concentration of the various test mixtures, as well as the number of different activating agents used in combination are summarized in the following two tables (all concentrations are given as % v/v): […]
# [5] = test system: NO production; test: Inhibition of NO production in activated RAW 264.7 macrophages (Griess assay); type: cell-based; settings: Mus musculus, RAW264.7, 24 h, RAW 264.7 macrophages activated with LPS and IFN-γ
# Description: RAW 264.7 macrophages were grown in flat-bottomed flasks using a standard growth medium (DMEM supplemented with 5% FBS, antibiotics and glutamine. The cells were maintained in accordance with standard procedures well known in the art. After the cells reached confluence, they were removed from the flasks using mechanical means and then concentrated by centrifuging and resuspended in a small volume of fresh culture medium. The cell concentration was adjusted with growth medium in order that about 75,000 cells could be added to each well of a 96-well plate. A combination of 25 μg/mL LPS and 10 U/ml IFN-γ DMEM, was used for activation of the macrophages. The various test agents were added to the wells one hour prior to activation. The cells were then incubated for a further 24 hours, prior to assaying the inflammatory mediator production and cell viability. The production of NO by the macrophages subjected to the various treatments was assayed using the Griess reagent (equal volumes of 1% sulphanilamide and 0.1% […]-diamine in 5% HCl). 70 μl of supernatant from each test well was transferred to a fresh 96-well plate and mixed with 70 μL of Griess reagent and the violet color produced was measured at 540 nm.
# [6] = test system: RAW 264.7 macrophages; test: Cell viability, Alamar Blue assay; type: cell-based
# Description: (§1) RAW 264.7 macrophages were grown in flat-bottomed flasks using a standard growth medium (DMEM supplemented with 5% FBS, antibiotics and glutamine. The cells were maintained in accordance with standard procedures well known in the art. After the cells reached confluence, they were removed from the flasks using mechanical means and then concentrated by centrifuging and resuspended in a small volume of fresh culture medium. The cell concentration was adjusted with growth medium in order that about 75,000 cells could be added to each well of a 96-well plate. A combination of 25 μg/mL LPS and 10 U/ml IFN-γ DMEM, was used for activation of the macrophages. The various test agents were added to the wells one hour prior to activation. The cells were then incubated for a further 24 hours, prior to assaying the inflammatory mediator production and cell viability.
# The Alamar Blue assay of viability was performed by adding 100 μl of a 10% Alamar Blue solution to each well and incubating at 37° C. for 1-2 hr. Fluorescence was measured (excitation at 545 nm and emission at 595 nm) and expressed as a percentage of the values in untreated control cells.
# [7] = test system: Clavibacter michiganensis sp. Michiganensis (Cmm); test: Survival of Cmm after co-incubation in test tubes, colony count; type: cell-based; settings: Example 12, contact time 3 days
# Description: Various combinations of a 3% Rhizobium sp. preparation together with an emulsion containing 5 activating agents (E-91) or one of the components of said emulsion (naringin) and a culture of the plant pathogen Cmm (10^5-10^6 CFU/ml final concentration) were incubated in test tubes for up to 3 days (4 replicates per combination). At the end of the 3 day incubation period the contents of the test tubes containing all these components were plated on to growth medium and the numbers of colonies of Cmm and Rhizobium species for each test condition (CFU/ml) were measured.
# The emulsion containing the 5 activating agents (Sclaerol, Naringin, Nootkatone, Stevia and CBD; referred to in the results table hereinbelow as 5% plant emulsion E-91) was prepared as described in Example 6, hereinabove.
# This study was conducted in essentially the same manner as the study presented in Example 12. In the present study, however, the effect of the 5-component activating agent emulsion (5% plant emulsion E91) is compared with the following combinations of activating agents: […]
# [8] = test system: TNF-α production; test: Inhibition of TNF-α production in activated RAW 264.7 macrophages (ELISA); type: cell-based; settings: Mus musculus, RAW264.7; RAW 264.7 macrophages activated with LPS and IFN-γ, 24 hours
# Description: as §1, with “viability. A sandwich ELISA was used to determine TNF-α concentration. The primary antibody was used at a concentration of 0.5 μg/mL in PBS. Serial dilutions of TNF-α standard from 0 to 1000 pg/mL in diluent (0.05% Tween-20, 0.1% BSA in PBS) were used as internal standard. TNF-α was detected with a biotinylated second antibody and an avidin peroxidase conjugate with TMB as detection reagent. The color development was monitored at 655 nm, taking readings after every 5 minutes. After 25 minutes, the reaction was stopped using 0.5 M sulphuric acid and the absorbance was measured at 450 nm.” for “viability.”
# [9] = at the IC50 for inhibition of NO production
# [10] = at the IC50 for inhibition of TNF-α production
compound,measurement,setting,value
"NC(N)=O [A. Positive control - full nitrogen, urea]",Average wheat grain yield,[1]; from each of 6 2 m plots,1.11 kg
same,Flag leaf width,[1]; wheat,2.0 cm
same,Main shoot diameter,[1]; wheat,0.42 cm
same,No. of side shoots,[1]; wheat,1.3
same,"Average nitrogen content, flag leaves",[1]; wheat flag leaf,2.94
same,Total plant weight (10 plants),[2]; 10 plants,11.81 kg
same,Mean cob weight (10 plants),[2]; cobs from the main stems of 10 plants,3.96 kg
same,Mean Plant stem caliber,[2]; maize,37.2 mm
same,Mean leaf width,[2]; maize,10.5 cm
same,Plant height,[2]; mean of 10 plants,2.72 m
same,AVERAGE N2 CONTENT (total leaf nitrogen),[3],3.16
"C=C(C)[C@@H]1CCC(C)=C[C@H]1c1c(O)cc(CCCCC)cc1O [Cannabidiol (CBD; hemp oil), cannabidiol]","Protection of tomato plants (inoculation index 0=healthy, 5=dead)",[4],highly active even when present as the sole activating agent
C[C@@H]1O[C@@H](O[C@H]2[C@H](Oc3cc(O)c4c(c3)O[C@H](c3ccc(O)cc3)CC4=O)O[C@H](CO)[C@@H](O)[C@@H]2O)[C@H](O)[C@H](O)[C@H]1O [Naringin],IC50,[5],40 µg/mL
same,Cell viability (% of cell survival),[6]; [9],90.10 ± 4.2%
same,Cell viability (% of cell survival),[6]; [10],91.50 ± 5.2%
same,"Cmm count, MEAN",[7]; mean of 4 replicates,7.75 × 10^5 CFU/ml
same,"Cmm count, individual replicates","[7]; replicates 1-4, listed as Cmm + 0.1% Naringin",6.5 × 10^5 CFU/ml and 8.3 × 10^5 CFU/ml and 7.7 × 10^5 CFU/ml and 8.6 × 10^5 CFU/ml
same,IC50,[8],90 µg/mL
C=C[C@](C)(O)CC[C@@H]1[C@@]2(C)CCCC(C)(C)[C@@H]2CC[C@@]1(C)O [Sclareol],IC50,[5],40 µg/mL
same,Cell viability (% of cell survival),[6]; [9],96.20 ± 2.1%
same,Cell viability (% of cell survival),[6]; [10],95.30 ± 2.2%
same,IC50,[8],80 µg/mL
C=C1C[C@@]23CC[C@H]4[C@@](C)(CCC[C@@]4(C)C(=O)O)[C@@H]2CC[C@]1(O)C3 [Steviol],IC50,[8],80 µg/mL
